In patent US9974775B2, “Substituted imidazoles as N-type calcium channel blockers” (Janssen Pharmaceutica NV, priority 2013, dated 2018):
Where two headings read alike, the source gives them in different places.

How the values were obtained:
[1] = system: mechanical allodynia after L5/L6 spinal nerve ligation; assay: Sciatic nerve ligation (SNL) model of neuropathic pain; assay type: in vivo; conditions: rats; dose 50 mg/kg; response at Tmax
Description: Left L5 and L6 spinal nerves are isolated adjacent to the vertebral column and were ligated with 5-0 silk suture distal to the dorsal root ganglion, as described by Kim and Chung (1992). The incision was closed with the help of GLUture topical tissue adhesive. At 14 days post-surgery (one day prior to test compound administration), mechanical allodynia was quantified using eight von Frey filaments, calibrated in the range 0.4-15.1 g (Nielsen et al 2005). Rats were placed into individual plastic containers on top of a suspended wire mesh grid and acclimated to the test chambers for at least 15 min. Filaments were applied perpendicular to the mid-plantar paw surface, with enough force to cause slight buckling, and held in place for 6-8 sec until a response was noted as a sharp paw withdrawal, flinching, licking and/or biting immediately upon removal of the filament (Nielsen et al 2005). […] Test compounds of Formula (I) were administered and a response was measured at Tmax. The maximum possible effect (% MPE) was determined to be 100% if the sensitivity in the ipsilateral paw neared that of the contralateral paw. Values from vehicle-treated animals were considered 0%. The compound effect was determined based on these values.

human N-type Ca channel [2] = target: T1, human N-type Ca channel (Homo sapiens, UniProt Q00975); assay: Calcium influx assay (FDSS); assay type: cell-based; set-up: host or cells: HEK 293; conditions: HEK 293 cells, depolarized with 100 mM KCl
T1 sequence (Q00975 whole entry): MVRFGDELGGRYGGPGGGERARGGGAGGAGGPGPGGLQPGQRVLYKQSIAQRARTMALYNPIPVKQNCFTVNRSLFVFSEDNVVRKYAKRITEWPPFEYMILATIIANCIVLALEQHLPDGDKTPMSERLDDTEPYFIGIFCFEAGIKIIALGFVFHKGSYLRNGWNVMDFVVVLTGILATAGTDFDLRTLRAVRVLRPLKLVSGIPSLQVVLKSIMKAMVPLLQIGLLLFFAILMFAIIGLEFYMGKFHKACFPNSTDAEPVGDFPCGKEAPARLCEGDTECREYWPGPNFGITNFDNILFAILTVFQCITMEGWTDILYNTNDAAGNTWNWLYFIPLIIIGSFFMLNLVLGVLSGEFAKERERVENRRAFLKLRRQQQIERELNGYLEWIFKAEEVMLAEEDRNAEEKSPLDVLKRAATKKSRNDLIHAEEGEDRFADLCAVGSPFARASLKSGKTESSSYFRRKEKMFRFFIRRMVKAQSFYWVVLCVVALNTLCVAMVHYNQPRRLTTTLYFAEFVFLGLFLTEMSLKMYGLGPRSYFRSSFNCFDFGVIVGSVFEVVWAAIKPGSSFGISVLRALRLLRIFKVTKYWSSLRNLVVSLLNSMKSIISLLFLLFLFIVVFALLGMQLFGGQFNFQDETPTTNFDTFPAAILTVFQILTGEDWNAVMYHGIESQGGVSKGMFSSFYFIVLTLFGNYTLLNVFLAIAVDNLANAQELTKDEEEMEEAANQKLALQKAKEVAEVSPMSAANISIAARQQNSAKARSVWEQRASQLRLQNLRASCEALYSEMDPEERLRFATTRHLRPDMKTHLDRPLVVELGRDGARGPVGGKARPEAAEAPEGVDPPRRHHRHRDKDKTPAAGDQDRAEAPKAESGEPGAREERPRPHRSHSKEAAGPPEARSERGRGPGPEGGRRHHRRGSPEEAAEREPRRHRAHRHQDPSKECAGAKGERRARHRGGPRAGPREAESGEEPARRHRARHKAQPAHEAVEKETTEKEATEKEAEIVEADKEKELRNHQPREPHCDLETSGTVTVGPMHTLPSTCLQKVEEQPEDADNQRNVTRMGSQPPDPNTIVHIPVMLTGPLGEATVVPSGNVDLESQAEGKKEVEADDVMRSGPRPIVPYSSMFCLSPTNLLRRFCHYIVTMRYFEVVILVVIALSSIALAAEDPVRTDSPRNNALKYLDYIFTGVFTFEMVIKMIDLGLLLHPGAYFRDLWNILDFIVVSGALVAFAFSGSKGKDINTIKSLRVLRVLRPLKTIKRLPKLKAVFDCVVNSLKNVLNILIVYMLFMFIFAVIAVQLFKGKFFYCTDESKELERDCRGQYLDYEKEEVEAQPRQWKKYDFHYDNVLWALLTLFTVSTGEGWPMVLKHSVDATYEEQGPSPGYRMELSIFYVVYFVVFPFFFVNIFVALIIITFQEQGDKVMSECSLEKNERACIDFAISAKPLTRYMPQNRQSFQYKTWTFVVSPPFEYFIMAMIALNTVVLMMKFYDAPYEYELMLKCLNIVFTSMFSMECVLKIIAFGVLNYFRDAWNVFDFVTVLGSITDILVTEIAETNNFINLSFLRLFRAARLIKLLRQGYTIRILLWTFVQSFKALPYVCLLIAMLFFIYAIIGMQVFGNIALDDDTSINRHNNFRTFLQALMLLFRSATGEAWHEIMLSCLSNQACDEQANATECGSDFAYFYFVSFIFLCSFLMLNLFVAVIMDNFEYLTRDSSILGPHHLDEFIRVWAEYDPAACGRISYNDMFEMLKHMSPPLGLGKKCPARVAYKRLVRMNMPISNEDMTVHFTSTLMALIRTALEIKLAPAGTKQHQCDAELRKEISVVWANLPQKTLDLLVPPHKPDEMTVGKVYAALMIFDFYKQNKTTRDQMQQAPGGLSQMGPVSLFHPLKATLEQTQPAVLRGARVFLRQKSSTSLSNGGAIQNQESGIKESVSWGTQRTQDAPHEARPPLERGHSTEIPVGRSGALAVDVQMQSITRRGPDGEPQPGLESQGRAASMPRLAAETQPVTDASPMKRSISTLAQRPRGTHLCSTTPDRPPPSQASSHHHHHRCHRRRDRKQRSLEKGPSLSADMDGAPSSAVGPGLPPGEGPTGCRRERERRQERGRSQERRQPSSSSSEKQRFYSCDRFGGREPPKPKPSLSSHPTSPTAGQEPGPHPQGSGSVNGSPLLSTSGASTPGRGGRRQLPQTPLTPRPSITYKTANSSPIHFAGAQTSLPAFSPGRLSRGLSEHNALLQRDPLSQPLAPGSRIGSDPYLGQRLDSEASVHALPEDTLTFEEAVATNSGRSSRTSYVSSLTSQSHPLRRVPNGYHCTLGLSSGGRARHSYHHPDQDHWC
T1 sequence (P54284 whole entry partner): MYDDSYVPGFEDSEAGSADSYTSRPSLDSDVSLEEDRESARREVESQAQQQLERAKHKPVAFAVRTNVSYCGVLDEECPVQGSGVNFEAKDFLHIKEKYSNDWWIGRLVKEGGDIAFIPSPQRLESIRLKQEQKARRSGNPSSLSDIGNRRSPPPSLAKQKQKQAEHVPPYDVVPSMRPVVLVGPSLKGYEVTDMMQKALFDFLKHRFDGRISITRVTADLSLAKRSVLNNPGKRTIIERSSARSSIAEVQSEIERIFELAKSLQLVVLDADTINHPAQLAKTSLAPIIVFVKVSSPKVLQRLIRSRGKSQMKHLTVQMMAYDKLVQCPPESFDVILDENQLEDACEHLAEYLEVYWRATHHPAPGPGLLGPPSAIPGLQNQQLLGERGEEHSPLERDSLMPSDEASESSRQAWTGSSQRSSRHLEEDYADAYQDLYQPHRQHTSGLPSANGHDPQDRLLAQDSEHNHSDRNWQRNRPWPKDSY
T1 sequence (P54289 25-956 partner limits assumed): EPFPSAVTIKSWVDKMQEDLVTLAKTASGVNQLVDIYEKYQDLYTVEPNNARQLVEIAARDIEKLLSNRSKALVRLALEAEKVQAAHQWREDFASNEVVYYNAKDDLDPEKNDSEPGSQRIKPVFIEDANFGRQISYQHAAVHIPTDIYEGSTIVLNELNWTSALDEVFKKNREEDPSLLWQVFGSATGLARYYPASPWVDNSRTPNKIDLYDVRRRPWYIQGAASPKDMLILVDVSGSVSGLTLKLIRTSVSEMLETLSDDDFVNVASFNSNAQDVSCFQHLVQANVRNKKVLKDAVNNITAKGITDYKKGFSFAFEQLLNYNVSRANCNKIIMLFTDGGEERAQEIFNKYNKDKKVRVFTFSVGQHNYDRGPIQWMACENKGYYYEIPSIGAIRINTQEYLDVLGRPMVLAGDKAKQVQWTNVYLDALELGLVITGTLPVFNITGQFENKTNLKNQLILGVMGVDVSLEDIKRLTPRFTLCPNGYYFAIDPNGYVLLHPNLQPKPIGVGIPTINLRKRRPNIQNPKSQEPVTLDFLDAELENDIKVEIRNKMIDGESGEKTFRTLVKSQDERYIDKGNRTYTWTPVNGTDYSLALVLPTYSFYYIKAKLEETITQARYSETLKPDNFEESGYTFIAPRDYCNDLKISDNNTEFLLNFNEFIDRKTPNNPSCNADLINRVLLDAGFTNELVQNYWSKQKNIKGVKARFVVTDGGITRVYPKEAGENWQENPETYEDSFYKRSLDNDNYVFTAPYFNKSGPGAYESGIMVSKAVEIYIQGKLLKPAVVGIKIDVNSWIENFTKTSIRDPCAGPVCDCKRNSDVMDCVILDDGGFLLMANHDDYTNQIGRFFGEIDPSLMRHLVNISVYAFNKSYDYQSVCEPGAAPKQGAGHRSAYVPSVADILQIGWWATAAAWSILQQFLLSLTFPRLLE
T1 sequence (P54289 957-1103 partner limits assumed): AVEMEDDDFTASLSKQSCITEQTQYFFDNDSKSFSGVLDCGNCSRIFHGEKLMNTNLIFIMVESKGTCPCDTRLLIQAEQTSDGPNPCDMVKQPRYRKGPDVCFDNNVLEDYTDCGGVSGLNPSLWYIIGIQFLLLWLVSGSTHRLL
Experimental: All cell culture reagents were procured from HyClone and other reagents were from Fisher. Recombinant HEK 293 cells expressing human N-type Ca channel (Millipore) were maintained in DMEM F12 containing 10% FBS and selection antibiotics at 37° C. in 5% CO2.
Cells were incubated at 30° C. in 5% CO2 overnight. The medium was removed and cells were loaded with Fluo8 dye (AAT Bioquest) at 37° C. and 30° C., 30 min each in darkness. Cells were washed four times with wash buffer (16 mM Herep pH 7.2, 2 mM CaCl2, 1 mM MgCl2, 5 mM glucose, 140 mM choline chloride and 2 mM KCl) leaving 15 μL buffer after the last wash. Compounds of Formula (I), serially diluted, were added to the cell plate. The plates were incubated in darkness for 15 min. Cells were depolarized with 100 mM KCl and Ca influx was measured.

human N-type Ca channel [3] = target: T1, human N-type Ca channel; assay: Measurement of electrophysiological response (QPatch)
Experimental: The recombinant cell line described above was used in the measurement of electrophysiological properties with QPatch (Sophion). […] Prior to the experiment, the flasks were moved to 30° C. and incubated for 48-72 hrs. On the day of assaying, cells were detached and harvested. The cell pellet was re-suspended in SMF4HEK (HyClone)/25 mM HEPS at 2-5 million/mL and placed on the QStirrer of the QPatch for 30-60 min prior to the start of the assay. […] Microtiter-Plate/Reference Buffer contained 140 mM TEA-Cl, 10 mM BaCl2, 0.8 mM MgCl2, 10 mM HEPES pH˜7.4 adjusted with TEA-OH/HCl, and ˜300 mOsm. Cells were transferred to a QPatch 48 plate and gigaseal was formed. The plate was perfused with intracellular and extracellular buffer. […] In brief, cells were depolarized from resting potential of −80 mV to +20 mV and current was recorded. Data was plotted as percent inhibition vs concentration of the compound and IC50 values were generated using Graphpad Prism non-linear regression analysis.

[4] = read-out: Qpatch Pulse = 1 (percent inhibition)
[5] = concentration range 0.01-0.3 μM
[6] = N Type IC50 Data Qpatch Pulse = 1, Pulse = 1, concentration range 0.3-10 μM
[7] = N Type IC50 Data Qpatch Pulse = 15, Pulse = 15, concentration range 0.3-10 μM

SMILES	IC50 (human N-type Ca channel [2]) [nM]	IC50 (human N-type Ca channel [3]; [7]) [nM]	other results
COc1ccccc1-c1nc(C2CC(C)(C)OC(C)(C)C2)cn1-c1ccc(C#N)cc1 [Cpd 1, 4-(2-(2-methoxyphenyl)-4-(2,2,6,6-tetramethyltetrahydro-2H-pyran-4-yl)-1H-imidazol-1-yl)benzonitrile]			SNL(% MPE) [1]: 64.07 ± 12.31%
CC1(C)CC(c2cn(-c3ccc(C#N)cc3)c(C3CC3)n2)CC(C)(C)O1 [Cpd 57, 4-[2-Cyclopropyl-4-(2,2,6,6-tetramethyltetrahydro-2H-pyran-4-yl)-1H-imidazol-1-yl]benzonitrile]	≥ 10000		
COc1ccccc1-c1nc(C2CC(C)(C)OC(C)(C)C2)cn1-c1ccc(F)c(C#N)c1 [Cpd 74, 2-Fluoro-5-[2-(2-methoxy-phenyl)-4-(2,2,6,6-tetramethyl-tetrahydro-pyran-4-yl)-imidazol-1-yl]-benzonitrile]	488		inhibition at 10 µM (human N-type Ca channel [3]; [4]): 36%; inhibition at 10 µM (human N-type Ca channel [3]; read-out: Qpatch Pulse = 15 (percent inhibition)): 44%
COc1cc(-n2cc(C3CC(C)(C)OC(C)(C)C3)nc2-c2cccnc2OC)ccc1C#N [Cpd 77, 2-Methoxy-4-[2-(2-methoxypyridin-3-yl)-4-(2,2,6,6-tetramethyltetrahydro-2H-pyran-4-yl)-1H-imidazol-1-yl]benzonitrile]	≥ 10000		
COc1nccnc1-c1nc(C2CC(C)(C)OC(C)(C)C2)cn1-c1ccc(C#N)c(F)c1 [Cpd 88, 2-fluoro-4-(2-(3-methoxypyrazin-2-yl)-4-(2,2,6,6-tetramethyltetrahydro-2H-pyran-4-yl)-1H-imidazol-1-yl)benzonitrile]			N Type IC50 Data Qpatch Pulse = 15 (human N-type Ca channel [3]; [5]): poor fit
CCOc1ncccc1-c1nc(C2CC(C)(C)OC(C)(C)C2)cn1-c1ccc(C#N)c(F)c1 [Cpd 89, 4-(2-(2-ethoxypyridin-3-yl)-4-(2,2,6,6-tetramethyltetrahydro-2H-pyran-4-yl)-1H-imidazol-1-yl)-2-fluorobenzonitrile]			N Type IC50 Data Qpatch Pulse = 15 (human N-type Ca channel [3]; [5]): poor fit
COc1ccccc1-c1nc(C2CC(C)(C)OC(C)(C)C2)c(C)n1-c1ccc(Cl)cc1 [Cpd 90, 1-(4-chlorophenyl)-2-(2-methoxyphenyl)-5-methyl-4-(2,2,6,6-tetramethyltetrahydro-2H-pyran-4-yl)-1H-imidazole]			N Type IC50 Data Qpatch Pulse = 1 (human N-type Ca channel [3]; Pulse = 1, concentration range 0.01-0.3 μM): poor fit; N Type IC50 Data Qpatch Pulse = 15 (human N-type Ca channel [3]; [5]): poor fit
COc1ccccc1-c1nc(C2CC(C)(C)OC(C)(C)C2)cn1S(=O)(=O)CC(C)C [Cpd 96, 2-(2-Methoxyphenyl)-1-[(2-methylpropyl)sulfonyl]-4-(2,2,6,6-tetramethyltetrahydro-2H-pyran-4-yl)-1H-imidazole]			IC50 (human N-type Ca channel [3]): ≥ 10000 nM

The next lines start with results.

IC50 (human N-type Ca channel [2]) [nM]	IC50 (human N-type Ca channel [3]; [7]) [nM]	SMILES	other results
≥ 10000		COc1ccccc1-c1nc(C2CC(C)(C)OC(C)(C)C2)cn1S(=O)(=O)C1CC1 [Cpd 95, 1-(Cyclopropylsulfonyl)-2-(2-methoxyphenyl)-4-(2,2,6,6-tetramethyltetrahydro-2H-pyran-4-yl)-1H-imidazole]	
≥ 10000	≥ 10000	COc1ccccc1-c1nc(C2CC(C)(C)OC(C)(C)C2)cn1Cc1cncnc1 [Cpd 100, 5-{[2-(2-Methoxyphenyl)-4-(2,2,6,6-tetramethyltetrahydro-2H-pyran-4-yl)-1H-imidazol-1-yl]methyl}pyrimidine]	IC50 (human N-type Ca channel [3]; [6]): ≥ 10000 nM
148	5030	COc1ccccc1-c1nc(C2(O)CC(C)(C)OC(C)(C)C2)cn1-c1ccc(F)c(Br)c1 [Cpd 106, 4-[1-(3-Bromo-4-fluorophenyl)-2-(2-methoxyphenyl)-1H-imidazol-4-yl]-2,2,6,6-tetramethyltetrahydro-2H-pyran-4-ol]	inhibition at 10 µM (human N-type Ca channel [3]; [4]): 71%
1370		COc1ncccc1-c1nc(C2(O)CC(C)(C)OC(C)(C)C2)cn1-c1ccc(F)c(C#N)c1 [Cpd 116, 2-Fluoro-5-[4-(4-hydroxy-2,2,6,6-tetramethyltetrahydro-2H-pyran-4-yl)-2-(2-methoxypyridin-3-yl)-1H-imidazol-1-yl]benzonitrile]	IC50 (human N-type Ca channel [3]; N Type IC50 Data Qpatch Pulse = 1, Pulse = 1, concentration range 0.01-1 μM): > 1000 nM; IC50 (human N-type Ca channel [3]; N Type IC50 Data Qpatch Pulse = 15, Pulse = 15, concentration range 0.01-1 μM): > 1000 nM
	≥ 10000	COc1ccccc1-c1nc(C2(O)CC(C)(C)OC(C)(C)C2)cn1-c1ccc(C#N)c(F)c1 [Cpd 118, 2-Fluoro-4-[4-(4-hydroxy-2,2,6,6-tetramethyltetrahydro-2H-pyran-4-yl)-2-(2-methoxyphenyl)-1H-imidazol-1-yl]benzonitrile]	
233	3300	COc1ccccc1-c1nc(C2CC(C)(C)OC(C)(C)C2)cn1-c1ccc(C#N)c(C(F)(F)F)c1 [Cpd 121, 4-[2-(2-Methoxyphenyl)-4-(2,2,6,6-tetramethyltetrahydro-2H-pyran-4-yl)-1H-imidazol-1-yl]-2-(trifluoromethyl)benzonitrile]	IC50 (human N-type Ca channel [3]; [6]): 6600 nM
234	1900	COc1ccccc1-c1nc(C2=CC(C)(C)OC(C)(C)C2)cn1-c1ccc(C#N)c(F)c1 [Cpd 126, 2-Fluoro-4-[2-(2-methoxyphenyl)-4-(2,2,6,6-tetramethyl-3,6-dihydro-2H-pyran-4-yl)-1H-imidazol-1-yl]benzonitrile]	
